Experimental data reported in patent publication US20260250312A1, “ANTIBACTERIAL COMPOUNDS ELIMINATING DORMANT BACTERIAL CELLS” (UNIVERSITÉ D'AIX-MARSEILLE, priority 2022, published 2026).
Values after ≈ are worked out from the molar mass of the structure shown. Values joined by “and” are separate entries in the source; they are usually repeats but may differ in a detail not shown here. Equal values may be shown once. Read-outs that look alike come from different tables or passages of the source.

Columns and labels:
[1] = tested on: Enterococcus faecalis (ATCC29212); test: Microdilution MIC assay (CLSI-based), E. faecalis; assay type: cell-based; settings: 20 hours incubation at 35-37° C., MHB; for MIC: read-out: Minimum inhibitory concentration E. faecalis ATCC29212
Description: (§1) The antibacterial activity of compounds was measured using a standard microdilution assay based on the Clinical and Laboratory Standards Institute (CLSI) guidelines. This method was slightly modified. Indeed, assay volumes were increased to 200 μL to improve reproducibility. The chemical compounds to be tested were in the form of salts for biological testing.
(§2) Bacteria tested: Antibacterial activities of the compounds were tested on Staphylococcus aureus (ATCC25923), Enterococcus faecalis (ATCC29212), Escherichia coli ([…]) and Pseudomonas aeruginosa (ATCC27853).
(§3) Preparation of the Preculture: Mueller Hinton Agar plates were inoculated with frozen biological strain in order to obtain separate colonies and the plates were incubated during 24 h at 35-37° C. 3 colonies of similar aspect were picked out, resuspended in 5 mL of fresh Mueller Hinton broth 1× (MHB) and incubated with shaking (160 rpm) at 35-37° C. overnight.
(§4) 0.1 mL of bacteria in exponential phase were suspended in 9.9 mL of MHB (1:100 dilution). 0.1 mL of the 1:100 dilution were dispensed into the wells of microplates containing 0.1 ml of serial compounds dilutions to yield ca. 5×10^5 CFU/mL. In parallel, the stocks solutions of chemical compounds were first diluted in appropriate solvent to a final concentration of 5 mg/mL. 8 μL were dispended into the first wells of the microplates containing 0.1 ml of sterile broth and a 0.5 cascade dilution was performed in MHB from 0.2 mg/mL. One control was made for each strain tested. […] Tests were performed in triplicate.
(§5) Reading of the Results: After incubation, the filter was replaced with a transparent film, and an optical density reading was then taken in an iEMS plate spectrophotometer at 620 nm. Calculation of the minimum inhibitory concentration (MIC) was performed.

CHO-K1 cells = test: WST1 cytotoxicity test; assay type: cell-based, Chinese hamster; settings: WST1, 24 hours at 37° C.; for IC50: read-out: IC50 CHO
Text: Cytotoxicity: The test WST1 was used to measure the cytotoxic activity of the compounds of the invention. The test WST1 is a colorimetric test allowing to measure the viability and the degree of cell proliferation. It is based on cleavage of the colorless tetrazolium salts WST-1 (4—[3-(4-iodophenyl)-2-(4-nitrophenyl)-2H-5-tetrazolio]-1,3-benzene disulfonate) with mitochondrial dehydrogenases to the yellow-colored formazan derivative, which may be quantified by spectrophotometry at 420-480 nm. The WST1 test was performed on Chinese hamster ovary (CHO) cells. The CHO-K1 cells (ATCC, USA) were kept in culture in McCoy's 5A medium supplemented with 10% fetal calf serum, 2 mM of L-glutamine and a mixture of penicillin-streptomycin (100 U/ml: 10 μg/mL). The culture was incubated at 37° C. under an atmosphere enriched in CO2 (5%), and subcultured every two days. The cells were transferred into 96-well plates (25,000 cells/mL) in whole McCoy's 5A medium, and maintained for 24 hours at 37° C. under a humid atmosphere enriched in CO2 (5%). Increasing concentrations of tested compounds were added to the wells, each compound was tested in replicates and 8 growth controls containing the cells in the medium alone were included in each series of tests. After 24 hours at 37° C. (5% CO2), the culture medium was removed, the cells were rinsed in phosphate buffer (PBS) and 50 μL of PBS containing 10% of reagent WST1 were added to each well. After 20 minutes of incubation at 37° C., the results were read by spectrophotometry at 450 nm. The results are expressed in dose-response relationships, modeled by nonlinear regression analysis using the TableCurve software.
Cytotoxicity: The same WST1 test as described in Example 2 above was used.

[2] = tested on: Staphylococcus aureus (ATCC25923); test: Microdilution MIC assay (CLSI-based), S. aureus; assay type: cell-based; settings: 20 hours incubation at 35-37° C., MHB; for MIC: read-out: Minimum inhibitory concentration S. aureus ATCC25923
Description: as §1, §2, §3, §4, §5

[3] = tested on: Pseudomonas aeruginosa (ATCC27853); test: Microdilution MIC assay (CLSI-based), P. aeruginosa; assay type: cell-based; settings: 20 hours incubation at 35-37° C., MHB; for MIC: read-out: Minimum inhibitory concentration P. aeruginosa ATCC27853
Description: as §1, §2, §3, §4, §5

[4] = tested on: Escherichia coli (ATCC28922); test: Microdilution MIC assay (CLSI-based), E. coli; assay type: cell-based; settings: 20 hours incubation at 35-37° C., MHB; for MIC: read-out: Minimum inhibitory concentration E. coli ATCC28922
Description: as §1, §2, §3, §4, §5

[5] = Enterococcus faecalis, ATCC29212, 20 h
[6] = Cricetulus griseus, CHO-K1, 24 h
[7] = Staphylococcus aureus, ATCC25923, 20 h
[8] = Pseudomonas aeruginosa, ATCC27853, 20 h
[9] = Escherichia coli, ATCC28922, 20 h

| Structure (SMILES) | MIC [1, 5] | IC50 (CHO-K1 cells; [6]) | MIC [2, 7] | MIC [3, 8] | MIC [4, 9] | Minimum inhibitory concentration E. faecalis ATCC29212 [1] | MIC [1] | IC50 CHO (CHO-K1 cells) | IC50 (CHO-K1 cells) | Minimum inhibitory concentration S. aureus ATCC25923 [2] | MIC [2] | Minimum inhibitory concentration P. aeruginosa ATCC27853 [3] | MIC [3] | Minimum inhibitory concentration E. coli ATCC28922 [4] | MIC [4] |
| --- | --- | --- | --- | --- | --- | --- | --- | --- | --- | --- | --- | --- | --- | --- | --- |
| COC(=O)CNC(=O)CC[C@@H](C)[C@H]1CCC2C3C(CC[C@@]21C)[C@@]1(C)CC[C@H](NCCCN(CCCN)CCCN)C[C@H]1C[C@H]3O (stereo partly drawn) [Compound S005, methyl ((4R)-4-((3S,5S,7R,10S,13R,17R)-3-((3-(bis(3-aminopropyl)amino)propyl)amino)-7-hydroxy-10,13-dimethylhexadecahydro-1H-cyclopenta[a]phenanthren-17-yl)pentanoyl)glycinate] | 200 µM and 128 µg/mL | > 100 µM and > 64 µg/mL | 12.5 µM and 8 µg/mL | > 200 µM and > 126 µg/mL | > 200 µM and > 126 µg/mL |  |  |  |  |  |  |  |  |  |  |
| COC(=O)CNC(=O)CC[C@@H](C)[C@H]1CCC2C3C(CC[C@@]21C)[C@@]1(C)CC[C@H](NCCCN2CCN(CCCN)CC2)C[C@H]1C[C@H]3O (stereo partly drawn) [Compound S006, methyl ((4R)-4-((3S,5S,7R,10S,13R,17R)-3-((3-(4-(3-aminopropyl)piperazin-1-yl)propyl)amino)-7-hydroxy-10,13-dimethylhexadecahydro-1H-cyclopenta[a]phenanthren-17-yl)pentanoyl)glycinate] | > 200 µM and > 128 µg/mL | 73.6 µM and 47.7 µg/mL | 25 µM and 16 µg/mL | > 200 µM and > 128 µg/mL | > 200 µM and > 128 µg/mL |  |  |  |  |  |  |  |  |  |  |
| COC(=O)[C@H](NC(=O)CC[C@@H](C)[C@H]1CCC2C3C(CC[C@@]21C)[C@@]1(C)CC[C@H](NCCCNCCCN)C[C@H]1C[C@H]3O)C(C)C (stereo partly drawn) [Compound S007, methyl ((4R)-4-((3S,5S,7R,10S,13R,17R)-3-((3-((3-aminopropyl)amino)propyl)amino)-7-hydroxy-10,13-dimethylhexadecahydro-1H-cyclopenta[a]phenanthren-17-yl)pentanoyl)-D-valinate] |  |  |  |  |  | 8 µg/mL (≈ 12.9 µM) | 12.5 µM (≈ 7.74 µg/mL) | 70.20 µg/mL (≈ 113 µM) | 113 µM | 8 µg/mL (≈ 12.9 µM) | 12.5 µM (≈ 7.74 µg/mL) | 16 µg/mL (≈ 25.9 µM) | 25 µM (≈ 15.5 µg/mL) | 4 µg/mL (≈ 6.46 µM) | 6.25 µM (≈ 3.87 µg/mL) |
| COC(=O)[C@H](NC(=O)CC[C@@H](C)[C@H]1CCC2C3C(CC[C@@]21C)[C@@]1(C)CC[C@H](NCCN)C[C@H]1C[C@H]3O)C(C)C (stereo partly drawn) [Compound S008, methyl ((4R)-4-((3S,5S,7R,10S,13R,17R)-3-((2-aminoethyl)amino)-7-hydroxy-10,13-dimethylhexadecahydro-1H-cyclopenta[a]phenanthren-17-yl)pentanoyl)-D-valinate] | 25 µM and 16 µg/mL | 86 µM and 47.1 µg/mL | 25 µM and 16 µg/mL | 200 µM and 128 µg/mL | 25 µM and 16 µg/mL |  |  |  |  |  |  |  |  |  |  |
| COC(=O)[C@H](NC(=O)CC[C@@H](C)[C@H]1CCC2C3C(CC[C@@]21C)[C@@]1(C)CC[C@H](NCCCCCCCCCCN)C[C@H]1C[C@H]3O)C(C)C (stereo partly drawn) [Compound S009, methyl ((4R)-4-((3S,5S,7R,10S,13R,17R)-3-((10-aminodecyl)amino)-7-hydroxy-10,13-dimethylhexadecahydro-1H-cyclopenta[a]phenanthren-17-yl)pentanoyl)-D-valinate] | 25 µM and 16 µg/mL | 20 µM and 13.2 µg/mL | 25 µM and 16 µg/mL | > 200 µM and > 128 µg/mL | 200 µM and 128 µg/mL |  |  |  |  |  |  |  |  |  |  |
| COC(=O)[C@H](NC(=O)CC[C@@H](C)[C@H]1CCC2C3C(CC[C@@]21C)[C@@]1(C)CC[C@H](NCCCNCCCNCCCN)C[C@H]1C[C@H]3O)C(C)C (stereo partly drawn) [Compound S011, methyl ((4R)-4-((3S,5S,7R,10S,13R,17R)-3-((3-((3-((3-aminopropyl)amino)propyl)amino)propyl)amino)-7-hydroxy-10,13-dimethylhexadecahydro-1H-cyclopenta[a]phenanthren-17-yl)pentanoyl)-D-valinate] | 25 µM and 16 µg/mL | 1.17 µM and 0.79 µg/mL | 12.5 µM and 8 µg/mL | 25 µM and 16 µg/mL | 12.5 µM and 8 µg/mL |  |  |  |  |  |  |  |  |  |  |
